Reference: article PMC10889769, “The Molecular and Functional Characterization of Sensory Neuron Membrane Protein 1b (SNMP1b) from Cyrtotrachelus buqueti (Coleoptera: Curculionidae)” (Insects, 2024)
Like-named read-outs stand apart in the source and are kept apart here.

Legend:
[1] = target: T1, CbuqSNMP1b (Cyrtotrachelus buqueti, UniProt A0A9E9JN76); test: Binding of 1-NPN to CbuqSNMP1b (fluorescence titration, Scatchard analysis); conditions: 2 μM CbuqSNMP1b titrated with 2–40 μM 1-NPN; Scatchard plot; read-out: dissociation constant (Kd) of the CbuqSNMP1b/1-NPN complex
T1 sequence (A0A9E9JN76 entry or part of it): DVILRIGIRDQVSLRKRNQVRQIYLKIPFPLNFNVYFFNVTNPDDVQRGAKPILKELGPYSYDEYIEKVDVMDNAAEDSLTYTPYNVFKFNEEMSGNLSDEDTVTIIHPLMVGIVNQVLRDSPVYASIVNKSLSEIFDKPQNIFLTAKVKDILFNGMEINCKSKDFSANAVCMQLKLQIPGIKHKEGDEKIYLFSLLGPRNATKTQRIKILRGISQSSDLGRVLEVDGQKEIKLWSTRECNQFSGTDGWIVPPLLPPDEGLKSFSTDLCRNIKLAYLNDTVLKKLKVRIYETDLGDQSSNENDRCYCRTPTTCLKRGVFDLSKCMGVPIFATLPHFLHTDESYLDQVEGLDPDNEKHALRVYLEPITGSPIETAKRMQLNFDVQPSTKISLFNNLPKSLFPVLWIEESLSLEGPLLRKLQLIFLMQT
Experimental: Binding affinities of CbuqSNMP1b to 14 volatiles (Table 1) emitted by female adults of C. buqueti were measured with the fluorescence competition binding assays using N-phenyl-1-naphthylamine (1-NPN) as the fluorescent probe. 1-NPN and all of the other chemicals (the purity being at least more than 96%) used in the binding assays were purchased from Aladdin Biochemical Technology Co., Ltd. (Shanghai, China). The Lumina fluorescence spectrophotometer (Thermo Fisher Scientific, Waltham, MA, USA) was used to perform fluorescence binding assays with a 1 cm light path quartz cuvette at room temperature. All the slit widths for both excitation and emission were 10 nm. The 1-NPN and all the other chemicals were dissolved in methanol (HPLC-grade) to a final concentration of 1 mM. The binding constant of 1-NPN was determined by titrating a 2 μM solution of the CbuqSNMP1b protein with aliquots of 2–40 μM 1-NPN concentrations. The binding of 1-NPN was measured at an excitation wavelength of 337 nm. The scanning range was 360–560 nm at each concentration and the maximum fluorescence intensities were plotted against the free ligand concentration. […]

[2] = target: T1, CbuqSNMP1b; test: Fluorescence competition binding assay with 1-NPN as fluorescent probe
Experimental: 1-NPN and all of the other chemicals (the purity being at least more than 96%) used in the binding assays were purchased from Aladdin Biochemical Technology Co., Ltd. (Shanghai, China). The Lumina fluorescence spectrophotometer (Thermo Fisher Scientific, Waltham, MA, USA) was used to perform fluorescence binding assays with a 1 cm light path quartz cuvette at room temperature. All the slit widths for both excitation and emission were 10 nm. The 1-NPN and all the other chemicals were dissolved in methanol (HPLC-grade) to a final concentration of 1 mM. The binding constant of 1-NPN was determined by titrating a 2 μM solution of the CbuqSNMP1b protein with aliquots of 2–40 μM 1-NPN concentrations. The binding of 1-NPN was measured at an excitation wavelength of 337 nm. The scanning range was 360–560 nm at each concentration and the maximum fluorescence intensities were plotted against the free ligand concentration.

[3] = recombinant CbuqSNMP1b and 1-NPN both at 2 μM, displacement of 1-NPN, room temperature, read-out: IC50

SMILES | IC50 [2, 3] | IC50 [2] | also measured
c1ccc(Nc2cccc3ccccc23)cc1 [1-NPN, N-phenyl-1-naphthylamine] |  |  | Kd [1]: 13.3 µM
CCCCCCCCC=O [1-Nonanal] | > 50 µM |  | 
CCCCCCCC(C)=O [2-Nonanone] | > 50 µM |  | 
C=C(C)[C@H]1CC=C(C)CC1 [(+)-Limonene] |  | > 50 µM | 
c1ccc2scnc2c1 [Benzothiazole] |  | 13.3 µM | 
C[C@@H]1CC[C@H]2C(C)(C)[C@H]3C[C@@]12CC[C@@]3(C)O [Cedrol] |  | > 50 µM | 
CCCCCCCCCC=O [Decyl aldehyde] | > 50 µM |  | 
CCCCOC(=O)c1ccccc1C(=O)OCCCC [Dibutyl phthalate] |  | 10.4 µM | 
CCCCCC(=O)OCC [Ethyl hexanoate] | > 50 µM |  | 
Cc1cccc(C)c1 [M-xylene] |  | > 50 µM | 
CCCCCCCCCCCCCCCC(=O)OC [Methyl hexadecanoate] | > 50 µM |  | 
Oc1ccccc1 [Phenol] |  | 24.1 µM | 
CC(C)=CCC/C(C)=C/CC/C(C)=C/CC/C=C(\C)CC/C=C(\C)CCC=C(C)C [Squalene] |  | > 50 µM | 
C=Cc1ccccc1 [Styrene] |  | > 50 µM | 
CCCC/C=C/C=C/C=O [trans,trans-2,4-Nonadienal] | > 50 µM |  | 
